Compound: COc1cc([C@@H]2c3cc4c(cc3[C@@H](O[C@@H]3O[C@@H]5CO[C@@H](C)O[C@H]5[C@H](O)[C@H]3O)[C@H]3COC(=O)[C@H]23)OCO4)cc(OC)c1O [Etoposide] + Nc1nc2[nH]cc(CCc3ccc(C(=O)N[C@@H](CCC(=O)O)C(=O)O)cc3)c2c(=O)[nH]1 [Pemetrexed] (partner 0.2 µM)
Assay: relative viability (nuclei count vs DMSO), 5 days (fraction); higher = more cells survive
Details: first compound 0.01 µM
Method in brief: (§1)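 Medians of duplicate plates are given as relative viability. That measure is the nuclei count in treated wells divided by the count in vehicle wells. Counts were taken on 4× images of lung cancer cell lines in 1536-well plates, 5 days after pin-tool dosing the day after seeding with one drug alone or a fixed anchor-drug dose plus five library-drug doses (not always all listed) in √10 steps.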

Going from NCI-H1355 to NCI-H322M, the relative viability falls from 1.09 to 0.604.

Compared with NCI-H1437, NCI-H1755 is higher in relative viability: 0.309 for the first, 0.468 for the second.

Going from NCI-H2023 to HCC-15, the relative viability falls from 0.241 to 0.213.

First: PC-3 [JPC-3]
Second: EKVX
The relative viability of the first is higher: 1.1 for the first, 0.351 for the second.

Going from LC-2-ad to NCI-H1944, the relative viability rises from 0.277 to 0.591.

First: NCI-H1975
Second: SK-LU-1
The relative viability of the first is lower: 0.285 for the first, 0.991 for the second.

With RERF-LC-KJ the relative viability was 0.454.

Same assay, conditions: first compound 0.03162 µM

Going from NCI-H1355 to NCI-H322M, the relative viability falls from 1.09 to 0.603.

Compared with NCI-H1437, NCI-H1755 is higher in relative viability: 0.318 for the first, 0.467 for the second.

First: NCI-H2023
Second: HCC-15
The relative viability of the first is higher: 0.272 for the first, 0.222 for the second.

First: NCI-H1793
Second: PC-3 [JPC-3]
The relative viability of the first is lower: 0.97 for the first, 1.23 for the second.

Compared with EKVX, LC-2-ad is lower in relative viability: 0.443 for the first, 0.279 for the second.

Going from NCI-H1944 to NCI-H1975, the relative viability falls from 0.797 to 0.303.

Going from SK-LU-1 to RERF-LC-KJ, the relative viability falls from 0.863 to 0.507.

Same assay, conditions: first compound 0.1 µM

First: NCI-H1355
Second: NCI-H322M
The relative viability of the first is lower: 0.617 for the first, 0.625 for the second.

Compared with NCI-H1437, NCI-H1755 is higher in relative viability: 0.303 for the first, 0.519 for the second.

Going from NCI-H2023 to HCC-15, the relative viability rises from 0.182 to 0.218.

First: NCI-H1793
Second: PC-3 [JPC-3]
The relative viability of the first is lower: 0.458 for the first, 1.09 for the second.

Going from EKVX to LC-2-ad, the relative viability falls from 0.344 to 0.298.

Going from NCI-H1944 to NCI-H1975, the relative viability falls from 0.396 to 0.31.

Going from SK-LU-1 to RERF-LC-KJ, the relative viability falls from 0.817 to 0.48.

Same assay, conditions: first compound 0.3162 µM

First: NCI-H1355
Second: NCI-H322M
The relative viability of the first is higher: 0.919 for the first, 0.587 for the second.

First: NCI-H1437
Second: NCI-H1755
The relative viability of the first is lower: 0.325 for the first, 0.41 for the second.

Compared with NCI-H2023, HCC-15 is higher in relative viability: 0.156 for the first, 0.183 for the second.

First: NCI-H1793
Second: PC-3 [JPC-3]
The relative viability of the first is lower: 0.629 for the first, 0.977 for the second.

Compared with EKVX, LC-2-ad is lower in relative viability: 0.285 for the first, 0.277 for the second.

First: NCI-H1944
Second: NCI-H1975
The relative viability of the first is higher: 0.44 for the first, 0.268 for the second.

First: SK-LU-1
Second: RERF-LC-KJ
The relative viability of the first is lower: 0.363 for the first, 0.434 for the second.

Same assay, conditions: first compound 1 µM

Going from NCI-H1355 to NCI-H322M, the relative viability rises from 0.46 to 0.524.

Going from NCI-H1437 to NCI-H1755, the relative viability rises from 0.303 to 0.428.

Compared with NCI-H2023, HCC-15 is higher in relative viability: 0.143 for the first, 0.171 for the second.

Compared with NCI-H1793, PC-3 [JPC-3] is higher in relative viability: 0.226 for the first, 0.706 for the second.

Compared with EKVX, LC-2-ad is higher in relative viability: 0.248 for the first, 0.28 for the second.

First: NCI-H1944
Second: NCI-H1975
The relative viability of the first is lower: 0.189 for the first, 0.223 for the second.

Going from SK-LU-1 to RERF-LC-KJ, the relative viability rises from 0.282 to 0.445.

Compound: CC1=C(N=C(N=C1N)[C@H](CC(=O)N)NC[C@@H](C(=O)N)N)C(=O)N[C@@H]([C@H](C2=CN=CN2)OC3C(C(C(C(O3)CO)O)O)OC4C(C(C(C(O4)CO)O)OC(=O)N)O)C(=O)N[C@H](C)[C@H]([C@H](C)C(=O)N[C@@H]([C@@H](C)O)C(=O)NCCC5=NC(=CS5)C6=NC(=CS6)C(=O)NCCC[S+](C)C)O [Bleomycin] + CC1(C)CCC(c2ccc(Cl)cc2)=C(CN2CCN(c3ccc(C(=O)NS(=O)(=O)c4ccc(N[C@H](CCN5CCOCC5)CSc5ccccc5)c(S(=O)(=O)C(F)(F)F)c4)cc3)CC2)C1 [Navitoclax] (partner 0.5 µM)
Assay: as above
Details: first compound 0.01 µM; main component drawn
Method in brief: as §1

Going from NCI-H1355 to NCI-H322M, the relative viability rises from 1.01 to 1.13.

Going from NCI-H1437 to NCI-H1755, the relative viability falls from 0.952 to 0.932.

Going from NCI-H2023 to HCC-15, the relative viability falls from 0.723 to 0.656.

First: NCI-H1793
Second: PC-3 [JPC-3]
The relative viability of the first is lower: 0.355 for the first, 0.784 for the second.

Going from EKVX to LC-2-ad, the relative viability falls from 0.75 to 0.333.

Compared with NCI-H1944, NCI-H1975 is higher in relative viability: 0.762 for the first, 0.872 for the second.

First: SK-LU-1
Second: RERF-LC-KJ
The relative viability of the first is higher: 0.807 for the first, 0.54 for the second.

Same assay, conditions: first compound 0.03162 µM; main component drawn

Compared with NCI-H1355, NCI-H322M is higher in relative viability: 0.947 for the first, 1.36 for the second.

First: NCI-H1437
Second: NCI-H1755
The relative viability of the first is higher: 1.07 for the first, 0.933 for the second.

First: NCI-H2023
Second: HCC-15
The relative viability of the first is higher: 0.72 for the first, 0.68 for the second.

Going from NCI-H1793 to PC-3 [JPC-3], the relative viability rises from 0.404 to 0.957.

Compared with EKVX, LC-2-ad is lower in relative viability: 0.925 for the first, 0.364 for the second.

Going from NCI-H1944 to NCI-H1975, the relative viability rises from 0.77 to 0.878.

Compared with SK-LU-1, RERF-LC-KJ is lower in relative viability: 1.06 for the first, 0.5 for the second.

Same assay, conditions: first compound 0.1 µM; main component drawn

Compared with NCI-H1355, NCI-H322M is higher in relative viability: 0.913 for the first, 1.36 for the second.

Compared with NCI-H1437, NCI-H1755 is lower in relative viability: 0.978 for the first, 0.945 for the second.

Compared with NCI-H2023, HCC-15 is higher in relative viability: 0.519 for the first, 0.713 for the second.

First: NCI-H1793
Second: PC-3 [JPC-3]
The relative viability of the first is lower: 0.298 for the first, 0.758 for the second.

Compared with EKVX, LC-2-ad is lower in relative viability: 0.842 for the first, 0.24 for the second.

Compared with NCI-H1944, NCI-H1975 is lower in relative viability: 0.594 for the first, 0.584 for the second.

Going from SK-LU-1 to RERF-LC-KJ, the relative viability falls from 0.662 to 0.439.

Same assay, conditions: first compound 0.3162 µM; main component drawn

Compared with NCI-H1355, NCI-H322M is higher in relative viability: 0.565 for the first, 1.28 for the second.

First: NCI-H1437
Second: NCI-H1755
The relative viability of the first is lower: 0.667 for the first, 0.724 for the second.

Compared with NCI-H2023, HCC-15 is higher in relative viability: 0.244 for the first, 0.378 for the second.

Compared with NCI-H1793, PC-3 [JPC-3] is higher in relative viability: 0.177 for the first, 0.63 for the second.

First: EKVX
Second: LC-2-ad
The relative viability of the first is higher: 0.424 for the first, 0.123 for the second.

Compared with NCI-H1944, NCI-H1975 is lower in relative viability: 0.423 for the first, 0.28 for the second.

First: SK-LU-1
Second: RERF-LC-KJ
The relative viability of the first is lower: 0.205 for the first, 0.227 for the second.

Same assay, conditions: first compound 1 µM; main component drawn

First: NCI-H1355
Second: NCI-H322M
The relative viability of the first is lower: 0.328 for the first, 0.597 for the second.

First: NCI-H1437
Second: NCI-H1755
The relative viability of the first is higher: 0.491 for the first, 0.394 for the second.

Going from NCI-H2023 to HCC-15, the relative viability rises from 0.148 to 0.324.

Compared with NCI-H1793, PC-3 [JPC-3] is higher in relative viability: 0.163 for the first, 0.511 for the second.

Compared with EKVX, LC-2-ad is lower in relative viability: 0.285 for the first, 0.13 for the second.

Compared with NCI-H1944, NCI-H1975 is lower in relative viability: 0.233 for the first, 0.222 for the second.

SK-LU-1 was tested, and the relative viability was 0.264.

Source: the supplement of paper PMC10307832
